From US11684614B2, “Formulations of hydroxypyridonate actinide/lanthanide decorporation agents” (priority 2017, dated 2023)
“And” between values parts separate entries of the source, which are not always exact repeats. Equal entries are not always repeated.

Assay: Repeated-treatment efficacy for removing an intravenous dose of 238Pu (excretion, tissue retention, clinical observations), female and male arms
Assay type: in vivo, Swiss-Webster mice
Conditions: listed as 3,4,3-LI(1,2-HOPO)
Protocol: The objective of this study was to characterize the efficacy of 3,4,3-L1(1,2-HOPO) at enhancing elimination from an internal plutonium burden in female and male Swiss-Webster mice administered a soluble citrate complex of ^238Pu and treated multiple times, starting at 24 hours after the exposure. Efficacy was evaluated by comparing the tissue contents, urinary and fecal excretions of ^238Pu in treated animals versus untreated animals.
The medical countermeasure 3,4,3-L1(1,2-HOPO) was administered parenterally (ip) or orally (po) via consecutive injections or gavages (six daily or twelve twice daily) starting at 24 hours post contamination at the following four selected doses: 30 μmol/kg ip, 150 μmol/kg po, 300 μmol/kg po, and 600 μmol/kg po (equivalent to respective approximate human doses range of […], using the accepted conversion system of mouse doses into human equivalent doses—HED—based on body surface area). Oral doses also included the permeability enhancer selected during formulation development work.
• Challenge isotope: ^238Pu • Challenge dose: 25 nCi (i.e., approximately 0.8 μCi/kg) • Route of contamination: Intravenous (iv) tail-vein • Route of treatment: Intraperitoneal Injection (ip) or Oral (po) • Frequency of treatment: Multiple (once- or twice-daily for 6 days) doses, starting 24 hr postcontamination • Treatment dose calculation: Dose calculations (mg/kg or μmol/kg) for the decorporation agent were based on the individual body weight measured after contamination. • Study Duration: 11 days, in-life
c. […] Test article and control dose formulations were prepared within 1 day of dose administration, by weighing out the appropriate amount of test article, dispersing in vehicle. For ip solutions, the test article was used alone, while for oral suspensions, a mixture of test article and excipient (90:10, w:w) was used. The pH was adjusted to 7.0-7.4 for ip administration and 5.0-5.5 for oral administration with sterile NaOH. Dose formulations were prepared at room temperature and filter-sterilized. • Storage: 2-8° C.; refrigerated; protected from light. • Characterization: The concentration of each test article formulation was verified by high-performance liquid chromatography-mass spectrometry. • Test Article Handling: Test, reference, and control article formulations were handled with the use of eye protection, gloves, and a protective laboratory coat. • Correct Dose Assurance: The test article was weighed with calibrated balances. The administration of each dose formulation was properly documented, and the amount administered to each animal recorded.
e. Experimental Procedures (In-Life Evaluations and Euthanasia) • Contamination: Single administration by intravenous (iv) tail-vein injection (0.2 mL injection volume) under isoflurane anesthesia. Three standard 0.2 mL injections were performed into polyethylene bottles and pre-loaded with aliquots of concentrated nitric acid on each injection day. Six female and six male mice were culled for necropsy 1 hr post-contamination and were used as standards. A11 standards were processed and counted together with the final samples to allow verification of the contamination dose. • Dose Administration: Single administration by intraperitoneal injection (ip) or oral gavage (po) under isoflurane anesthesia. • Mortality/Morbidity: Assessed at least once daily. • Clinical Observations: Recorded once daily (4 hr post-dose on day of treatment), or more often as clinical signs warranted. […]

Structure (SMILES): O=C(NCCCN(CCCCN(CCCNC(=O)c1cccc(=O)n1O)C(=O)c1cccc(=O)n1O)C(=O)c1cccc(=O)n1O)c1cccc(=O)n1O [3,4,3-L1(1,2-HOPO)]
- % Recovered Dose-Female Animals-Urine per Day-Day 11 Necropsy (animal group H, day 8, female mice): 0.66% and 1.22% and 0.77% and 0.75% and 0.78% and 0.99% and 0.49% and 1.24%
- % Recovered Dose-Female Animals-Urine per Day-Day 11 Necropsy (animal group H, day 9, female mice): 0.40% and 0.85% and 0.75% and 0.43% and 0.47% and 0.72% and 0.37% and 0.99%
- % Recovered Dose-Female Animals-Urine per Day-Day 11 Necropsy (animal group H, day 10, female mice): 0.31% and 0.47% and 0.39% and 0.29% and 0.19% and 0.50% and 0.25% and 0.54%
- % Recovered Dose-Female Animals-Urine per Day-Day 11 Necropsy (animal group H, day 11, female mice): 0.25% and 0.49% and 0.32% and 0.27% and 0.37% and 0.52% and 0.29% and 0.67%
- % Recovered Dose-Female Animals-Urine per Day-Day 11 Necropsy (animal group I, day 1, female mice): 7.77% and 13.56% and 9.39% and 8.83% and 9.40% and 8.09% and 8.07% and 7.99%
- % Recovered Dose-Female Animals-Urine per Day-Day 11 Necropsy (animal group I, day 3, female mice): 5.15% and 4.91% and 4.95% and 3.52% and 6.42% and 5.63% and 7.70%
- % Recovered Dose-Female Animals-Urine per Day-Day 11 Necropsy (animal group I, day 4, female mice): 2.76% and 3.63% and 3.08% and 3.06% and 4.72% and 4.39%
- % Recovered Dose-Female Animals-Urine per Day-Day 11 Necropsy (animal group I, day 5, female mice): 2.07% and 2.10% and 1.73% and 1.67% and 1.85% and 1.81% and 1.59%
- % Recovered Dose-Female Animals-Urine per Day-Day 11 Necropsy (animal group I, day 6, female mice): 1.80% and 2.08% and 1.82% and 1.64% and 2.11% and 1.61% and 1.48%
- % Recovered Dose-Female Animals-Urine per Day-Day 11 Necropsy (animal group I, day 7, female mice): 1.20% and 1.23% and 1.07% and 1.17% and 1.43% and 1.94% and 1.45%
- % Recovered Dose-Female Animals-Urine per Day-Day 11 Necropsy (animal group I, day 8, female mice): 0.79% and 1.03% and 0.78% and 0.83% and 0.67% and 0.96% and 0.90%
- % Recovered Dose-Female Animals-Urine per Day-Day 11 Necropsy (animal group I, day 9, female mice): 0.82% and 0.67% and 0.59% and 0.61% and 0.55% and 0.69% and 0.52%
- % Recovered Dose-Female Animals-Urine per Day-Day 11 Necropsy (animal group I, day 10, female mice): 0.78% and 0.49% and 0.52% and 0.32% and 0.31% and 0.55% and 0.45%
- % Recovered Dose-Female Animals-Urine per Day-Day 11 Necropsy (animal group I, day 11, female mice): 0.67% and 0.65% and 0.58% and 0.43% and 0.46% and 0.89% and 0.44%
- % Recovered Dose-Female Animals-Urine per Day-Day 11 Necropsy (animal group L, day 1, female mice): 5.35% and 10.51% and 3.65% and 5.09% and 9.71% and 8.91% and 9.38% and 5.37%
- % Recovered Dose-Female Animals-Urine per Day-Day 11 Necropsy (animal group L, day 2, female mice): 9.62% and 11.11% and 5.95% and 8.55% and 8.68% and 12.54% and 10.49% and 9.01%
- % Recovered Dose-Female Animals-Urine per Day-Day 11 Necropsy (animal group L, day 3, female mice): 5.07% and 4.30% and 2.41% and 3.68% and 5.39% and 4.44% and 3.21% and 5.10%
- % Recovered Dose-Female Animals-Urine per Day-Day 11 Necropsy (animal group L, day 4, female mice): 4.52% and 3.28% and 1.82% and 3.38% and 3.96% and 3.67% and 4.12% and 5.10%
- % Recovered Dose-Female Animals-Urine per Day-Day 11 Necropsy (animal group L, day 5, female mice): 2.41% and 2.57% and 6.05% and 2.26% and 2.77% and 2.39% and 2.74% and 3.54%
- % Recovered Dose-Female Animals-Urine per Day-Day 11 Necropsy (animal group L, day 6, female mice): 1.58% and 1.95% and 4.31% and 3.12% and 2.44% and 1.42% and 1.86% and 2.87%
- % Recovered Dose-Female Animals-Urine per Day-Day 11 Necropsy (animal group L, day 7, female mice): 2.68% and 4.39% and 2.50% and 2.41% and 2.29% and 1.58% and 2.14% and 2.03%
- % Recovered Dose-Female Animals-Urine per Day-Day 11 Necropsy (animal group L, day 8, female mice): 2.01% and 6.27% and 1.63% and 1.89% and 1.73% and 1.02% and 1.29% and 1.12%
- % Recovered Dose-Female Animals-Urine per Day-Day 11 Necropsy (animal group L, day 9, female mice): 0.99% and 3.81% and 0.96% and 1.05% and 0.50% and 0.53% and 0.57%
- % Recovered Dose-Female Animals-Urine per Day-Day 11 Necropsy (animal group L, day 10, female mice): 1.29% and 1.70% and 0.71% and 1.04% and 0.44% and 0.60% and 0.41%
- % Recovered Dose-Female Animals-Urine per Day-Day 11 Necropsy (animal group L, day 11, female mice): 0.70% and 1.28% and 0.58% and 0.75% and 0.68% and 0.40% and 0.72% and 0.59%
- % Recovered Dose-Female Animals-Urine per Day-Day 11 Necropsy (animal group M, day 1, female mice): 8.44% and 9.22% and 6.58% and 5.72% and 8.33% and 7.11% and 8.76% and 7.62%
- % Recovered Dose-Female Animals-Urine per Day-Day 11 Necropsy (animal group M, day 2, female mice): 6.23% and 7.89% and 7.02% and 10.02% and 10.31% and 12.05% and 7.08% and 9.14%
- % Recovered Dose-Female Animals-Urine per Day-Day 11 Necropsy (animal group M, day 3, female mice): 2.30% and 3.50% and 4.87% and 4.65% and 3.13% and 1.94% and 3.83% and 3.56%
- % Recovered Dose-Female Animals-Urine per Day-Day 11 Necropsy (animal group M, day 4, female mice): 3.18% and 2.79% and 3.46% and 4.28% and 3.48% and 2.77% and 2.90% and 3.40%
- % Recovered Dose-Female Animals-Urine per Day-Day 11 Necropsy (animal group M, day 5, female mice): 1.90% and 2.00% and 3.07% and 4.53% and 2.38% and 1.31% and 2.10% and 2.52%
- % Recovered Dose-Female Animals-Urine per Day-Day 11 Necropsy (animal group M, day 6, female mice): 2.20% and 3.65% and 3.85% and 2.48% and 2.57% and 1.91% and 3.39% and 2.63%
- % Recovered Dose-Female Animals-Urine per Day-Day 11 Necropsy (animal group M, day 7, female mice): 1.09% and 4.12% and 3.24% and 1.63% and 2.05% and 0.95% and 2.29% and 2.08%
- % Recovered Dose-Female Animals-Urine per Day-Day 11 Necropsy (animal group M, day 8, female mice): 1.16% and 1.96% and 1.85% and 1.17% and 1.59% and 1.23% and 1.36% and 1.47%
- % Recovered Dose-Female Animals-Urine per Day-Day 11 Necropsy (animal group M, day 9, female mice): 0.89% and 0.80% and 0.95% and 0.56% and 0.83% and 0.91% and 1.12% and 1.20%
- % Recovered Dose-Female Animals-Urine per Day-Day 11 Necropsy (animal group M, day 10, female mice): 0.48% and 0.61% and 0.71% and 0.70% and 1.03% and 1.20% and 1.18%
